Experimental findings from patent US6472348B1, “Pyridone derivatives and herbicides” (Kumiai Chemical Industry Co., Ltd., priority 1996, dated 2002) are described below.

What all share (type): in vivo
Series [1] concerns slender amaranth (Am). As to the kind of experiment: Test Example 4: crop plant selectivity by upland field soil treatment (cotton), herbicidal effects. The arrangement: scale not given here. Particulars: evaluated 21st day after application. In outline:
(§1)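 Upland soil treatment: crop and weed seeds in sand pots under a soil cover, compound applied to soil, greenhouse-grown, rated visually 21 d later.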

The subject of series [2] is China jute (Ab). The series is described as above. Particulars: evaluated 21st day after application. Details: scale not given here. Put shortly:
as §1

For series [3], the system named is green foxtail (Se). The description is as above. Details: scale not given here. Particulars: evaluated 21st day after application. Put shortly:
as §1

Series [4] deals with corn (Ze). Put plainly: Test Example 7: crop plant selectivity by upland field soil treatment (corn), phytotoxicity. The arrangement: scale not given here. Particulars: 21st day after application. In outline:
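Sand-filled pot; corn plus weeds sown, soil-covered. Post-application greenhouse culture. Herbicidal effect/phytotoxicity rated day 21 per standard scale.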

Series [5] deals with Digitaria ciliaris (Di). Put plainly: Test Example 2: herbicidal effects by upland field soil treatment.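 Further: grade of growth control; 5 = at least 90%; 4 = 70 to 90%; 3 = 50 to 70%; 2 = 30 to 50%; 1 = 10 to 30%; 0 = under 10%.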 Particulars: 100 g of the active ingredient per 10 ares. The text has this:
(§2) (Test on Herbicidal Effects by Upland Field Soil Treatment)

For series [6], the system named is slender amaranth (Am). The series is described as above. Particulars: 100 g of the active ingredient per 10 ares.
Description: as §2

Series [7] deals with common lambsquarters (Ch). The series is described as above. Particulars: 100 g of the active ingredient per 10 ares.
Description: as §2

Series [8] has as its system barnyardgrass (Ec). Described as above. Particulars: 100 g of the active ingredient per 10 ares.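 Further: grade of growth control; 5 = at least 90%; 4 = 70 to 90%; 3 = 50 to 70%; 2 = 30 to 50%; 1 = 10 to 30%; 0 = under 10%.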
Description: as §2

The test system of series [9] is rice flatsedge (Ci). Described as above. Particulars: 100 g of the active ingredient per 10 ares.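 Further: grade of growth control; 5 = at least 90%; 4 = 70 to 90%; 3 = 50 to 70%; 2 = 30 to 50%; 1 = 10 to 30%; 0 = under 10%.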
Description: as §2

In series [10] the test system is pale smartweed (Po). The series is described as above. Particulars: 100 g of the active ingredient per 10 ares.
Description: as §2

The mark [11] stands for this setting: evaluated on the 21st day after application.
Setting [12] is: 21st day after the application, index 0-5 of Table 47.
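Wherever Herbicidal effects Ch is given: grade of growth control; 5 = at least 90%; 4 = 70 to 90%; 3 = 50 to 70%; 2 = 30 to 50%; 1 = 10 to 30%; 0 = under 10%.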

Regarding `CCCc1cc2c(-c3ccc(C(F)(F)F)n(C)c3=O)c(F)cc(Cl)c2o1` [Compound 4-3], the “Herbicidal effects Am” value in [1] (dose 6.3 g ai/10 a) and in [6] (setting [11]) was 5 each time. Further, the “Herbicidal effects Ab” value in [2] (dose 6.3 g ai/10 a) was 5. For the same compound, the “Herbicidal effects Se” value in series [3] (dose 6.3 g ai/10 a) amounted to 5. In series [4] (dose 6.3 g ai/10a), the “Phytotoxicity Ze” value is 1. In series [5] (setting [11]), the “Herbicidal effects Di” value amounted to 5. Besides, in series [7] (setting [11]), the “Herbicidal effects Ch” value is given as 5. In addition, in series [8] (setting [11]), the “Herbicidal effects Ec” value is 5. For the same compound, the “Herbicidal effects Ci” value in series [9] (setting [11]) worked out at 5. Also, the “Herbicidal effects Po” value in series [10] (setting [11]) is 5.
As to `CCc1cc2c(Cl)cc(F)c(-c3ccc(C(F)(F)F)n(C)c3=O)c2o1` [Compound 5-2], the “Herbicidal effects Am” value in series [1] (dose 6.3 g ai/10 a) and in series [6] (setting [11]) was 5 each time. The “Herbicidal effects Ab” value in series [2] (dose 6.3 g ai/10 a) was found to be 5. Also, in series [3] (dose 6.3 g ai/10 a), the “Herbicidal effects Se” value was determined as 5. Also, the “Phytotoxicity Ze” value in [4] (dose 6.3 g ai/10a) amounted to 0. The “Herbicidal effects Di” value in series [5] (setting [11]) was determined as 5. Besides, the “Herbicidal effects Ch” value in [7] (setting [11]) is given as 5. Further, in [8] (setting [11]), the “Herbicidal effects Ec” value amounted to 5. Moreover, the “Herbicidal effects Ci” value in series [9] (setting [11]) is given as 5. For the same compound, the “Herbicidal effects Po” value in series [10] (setting [11]) amounted to 5.
Turning to `CON=Cc1cc(-c2ccc(C(F)(F)F)n(C)c2=O)c(F)cc1Cl` [Compound No. 1-72, 5-(1-methyl-6-trifluoromethyl-2(1H)-pyridon-3-yl)-2-chloro-4-fluorobenzaldehydeoxime-O-methyl ether], the “Herbicidal effects Am” value in [1] (dose 1.6 g ai/10 a), in [1] (dose 6.3 g ai/10 a) and in series [6] (setting [12]) was 5 in each case. The “Herbicidal effects Ab” value in [2] (dose 1.6 g ai/10 a) and in [2] (dose 6.3 g ai/10 a) was 5 throughout. In addition, the “Herbicidal effects Se” value in [3] (dose 1.6 g ai/10 a) and in series [3] (dose 6.3 g ai/10 a) was 5 in each case. For the same compound, in series [4] (dose 1.6 g ai/10a), the “Phytotoxicity Ze” value is on record as 0. The “Herbicidal effects Di” value in [5] (setting [12]) was 5. Moreover, in [7] (setting [12]), the “Herbicidal effects Ch” value was found to be 5. In series [8] (setting [12]), the “Herbicidal effects Ec” value was found to be 5. The “Herbicidal effects Ci” value in [9] (setting [12]) was 5. For the same compound, the “Herbicidal effects Po” value in [10] (setting [12]) came to 5.
For `Cn1c(C(F)(F)F)ccc(-c2cc(C#N)c(Cl)cc2F)c1=O` [Compound No. 1-119, 3-(4-chloro-5-cyano-2-fluorophenyl)-1-methyl-6-trifluoromethyl-2(1H)-pyridone], the “Herbicidal effects Am” value in series [1] (dose 6.3 g ai/10 a) and in series [6] (setting [12]) was 5 throughout. Moreover, the “Herbicidal effects Ab” value in [2] (dose 6.3 g ai/10 a) is recorded as 5. Besides, the “Herbicidal effects Se” value in series [3] (dose 6.3 g ai/10 a) turned out to be 5. For the same compound, the “Phytotoxicity Ze” value in [4] (dose 6.3 g ai/10a) is listed as 1. The “Herbicidal effects Di” value in [5] (setting [12]) is listed as 5. In [7] (setting [12]), the “Herbicidal effects Ch” value is 5. The “Herbicidal effects Ec” value in [8] (setting [12]) stood at 5. Besides, the “Herbicidal effects Ci” value in series [9] (setting [12]) was determined as 5. Moreover, the “Herbicidal effects Po” value in series [10] (setting [12]) turned out to be 5.
On to `CCCC(=O)c1cc(-c2ccc(C(F)(F)F)n(C)c2=O)c(F)cc1Cl` [Compound No. 1-194, 3-[4-chloro-2-fluoro-5-(1-oxobutyl)phenyl]-1-methyl-6-trifluoromethyl-2(1H)-pyridone], for which the “Herbicidal effects Am” value in series [1] (dose 6.3 g ai/10 a) and in series [6] (setting [11]) was 5 throughout. Moreover, the “Herbicidal effects Ab” value in [2] (dose 6.3 g ai/10 a) was 5. The “Herbicidal effects Se” value in [3] (dose 6.3 g ai/10 a) is recorded as 5. Further, in [4] (dose 6.3 g ai/10a), the “Phytotoxicity Ze” value is listed as 0. Further, the “Herbicidal effects Di” value in [5] (setting [11]) was found to be 5. Moreover, the “Herbicidal effects Ch” value in series [7] (setting [11]) was found to be 5. In addition, the “Herbicidal effects Ec” value in series [8] (setting [11]) is on record as 5. Besides, the “Herbicidal effects Ci” value in series [9] (setting [11]) amounted to 5. Moreover, the “Herbicidal effects Po” value in [10] (setting [11]) was 5.
Regarding `C#CCn1c(=O)sc2cc(F)c(-c3ccc(C(F)(F)F)n(C)c3=O)cc21` [Compound No. 3-1, 3-[6-fluoro-3-(2-propynyl)-benzothiazolin-2-on-5-yl]-1-methyl-6-trifluoromethyl-2(1H)-pyridone], the “Herbicidal effects Am” value in series [1] (dose 1.6 g ai/10 a), in series [1] (dose 6.3 g ai/10 a) and in series [6] (setting [11]) was 5 in each case. Further, the “Herbicidal effects Ab” value in series [2] (dose 1.6 g ai/10 a) and in series [2] (dose 6.3 g ai/10 a) was 5 in each case. The “Herbicidal effects Se” value in [3] (dose 1.6 g ai/10 a) and in series [3] (dose 6.3 g ai/10 a) was 5 throughout. Besides, the “Phytotoxicity Ze” value in [4] (dose 1.6 g ai/10a) and in [4] (dose 6.3 g ai/10a) was 2 each time. Besides, the “Herbicidal effects Di” value in series [5] (setting [11]) stood at 5. In series [7] (setting [11]), the “Herbicidal effects Ch” value worked out at 5. Moreover, in series [8] (setting [11]), the “Herbicidal effects Ec” value stood at 5. In series [9] (setting [11]), the “Herbicidal effects Ci” value was 5. Moreover, the “Herbicidal effects Po” value in [10] (setting [11]) was found to be 5.
As for `COCc1cc2c(-c3ccc(C(F)(F)F)n(C)c3=O)c(F)cc(Cl)c2o1` [Compound No. 4-4, 3-(7-chloro-5-fluoro-2-methoxymethylbenzofuran-4-yl)-1-methyl-6-trifluoromethyl-2-(1H)-pyridone], the “Herbicidal effects Am” value in series [1] (dose 1.6 g ai/10 a), in series [1] (dose 6.3 g ai/10 a) and in [6] (setting [11]) was 5 throughout. In addition, the “Herbicidal effects Ab” value in series [2] (dose 1.6 g ai/10 a) and in [2] (dose 6.3 g ai/10 a) was 5 each time. Moreover, the “Herbicidal effects Se” value in series [3] (dose 1.6 g ai/10 a) and in series [3] (dose 6.3 g ai/10 a) was 5 in each case. Also, the “Phytotoxicity Ze” value in [4] (dose 1.6 g ai/10a) came out at 1; in series [4] (dose 6.3 g ai/10a) it was 2. For the same compound, the “Herbicidal effects Di” value in [5] (setting [11]) was 5. Also, the “Herbicidal effects Ch” value in [7] (setting [11]) worked out at 5. In series [8] (setting [11]), the “Herbicidal effects Ec” value was found to be 5. In addition, the “Herbicidal effects Ci” value in series [9] (setting [11]) came to 5. Besides, the “Herbicidal effects Po” value in [10] (setting [11]) is 5.
For `Cn1c(C(F)(F)F)ccc(-c2c(F)cc(Cl)c3oc(CO)cc23)c1=O` [Compound No. 4-5, 3-(7-chloro-5-fluoro-2-hydroxymethylbenzofuran-4-yl)-1-methyl-6-trifluoromethyl-2-(1H)-pyridone], the “Herbicidal effects Am” value in [1] (dose 6.3 g ai/10 a) and in series [6] (setting [11]) was 5 throughout. Moreover, the “Herbicidal effects Ab” value in series [2] (dose 6.3 g ai/10 a) is 5. Further, the “Herbicidal effects Se” value in [3] (dose 6.3 g ai/10 a) is 5. Also, the “Phytotoxicity Ze” value in series [4] (dose 6.3 g ai/10a) stood at 0. Besides, the “Herbicidal effects Di” value in series [5] (setting [11]) is 5. The “Herbicidal effects Ch” value in series [7] (setting [11]) is recorded as 5. In [8] (setting [11]), the “Herbicidal effects Ec” value is 5. For the same compound, the “Herbicidal effects Ci” value in [9] (setting [11]) is 5. The “Herbicidal effects Po” value in series [10] (setting [11]) was 5.
In the case of `Cn1c(C(F)(F)F)ccc(-c2c(F)cc(Cl)c3occc23)c1=O` [Compound No. 4-28, 3-(7-chloro-5-fluorobenzofuran-4-yl)-1-methyl-6-trifluoromethyl-2-(1H)-pyridone], the “Herbicidal effects Am” value in series [1] (dose 1.6 g ai/10 a), in [1] (dose 6.3 g ai/10 a) and in series [6] (setting [11]) was 5 in each case. Also, the “Herbicidal effects Ab” value in series [2] (dose 1.6 g ai/10 a) and in series [2] (dose 6.3 g ai/10 a) was 5 throughout. The “Herbicidal effects Se” value in [3] (dose 1.6 g ai/10 a) and in series [3] (dose 6.3 g ai/10 a) was 5 in each case. Besides, in [4] (dose 1.6 g ai/10a), the “Phytotoxicity Ze” value was 1. Besides, in series [5] (setting [11]), the “Herbicidal effects Di” value was determined as 5. Besides, the “Herbicidal effects Ch” value in series [7] (setting [11]) came to 5. Also, the “Herbicidal effects Ec” value in [8] (setting [11]) came to 4. For the same compound, in series [9] (setting [11]), the “Herbicidal effects Ci” value is 5. Also, the “Herbicidal effects Po” value in series [10] (setting [11]) is 5.
